Assay results from patent US12029739B2, “SHP2 inhibitor and use thereof” (KANAPH THERAPEUTICS INC., priority 2021, dated 2024).
Read-outs that look alike come from different tables or passages of the source.

Legend:
SHP2 (full length) = molecular target: T1, SHP2 (full length) (Homo sapiens, UniProt Q06124); experiment: Phosphatase assay (PTPase assay) with DiFMUP substrate; format: biochemical; conditions: SHP2 activated with SHP2 activating peptide; DiFMUP 80 μM, 2 hours; fluorescence; read-out: IC50 (PTPase aS say)
T1 construct: SHP2 (full length, diluted to 100 pM final concentration in reaction buffer, BPS bioscience, US); purchased BPS bioscience, US
T1 sequence (Q06124 1-593): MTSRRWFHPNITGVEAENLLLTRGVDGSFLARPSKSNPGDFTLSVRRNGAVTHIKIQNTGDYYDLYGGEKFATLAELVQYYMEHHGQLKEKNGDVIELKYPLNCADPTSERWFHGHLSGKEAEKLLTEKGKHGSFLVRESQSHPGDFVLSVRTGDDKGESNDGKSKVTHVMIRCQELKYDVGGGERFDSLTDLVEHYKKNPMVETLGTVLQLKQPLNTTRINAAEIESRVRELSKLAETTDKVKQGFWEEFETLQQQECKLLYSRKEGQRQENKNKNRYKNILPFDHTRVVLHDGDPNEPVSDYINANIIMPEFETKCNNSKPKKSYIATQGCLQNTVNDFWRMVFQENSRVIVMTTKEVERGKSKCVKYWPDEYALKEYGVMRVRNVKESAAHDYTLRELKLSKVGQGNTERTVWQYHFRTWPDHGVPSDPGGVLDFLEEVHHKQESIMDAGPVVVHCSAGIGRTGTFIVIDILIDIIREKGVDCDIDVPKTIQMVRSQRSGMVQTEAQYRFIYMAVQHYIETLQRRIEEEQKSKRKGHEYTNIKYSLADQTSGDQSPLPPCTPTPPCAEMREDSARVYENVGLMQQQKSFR

[1] = tested on: phospho-ERK in MIA PaCa2 or H358 cells; experiment: Phospho-ERK assay (AlphaLisa); format: cell-based
[2] = 1.5 h, MIA PaCa2 or H358 cells, compound incubated 1.5 hours, read-out: IC50 (p-ERK)
[3] = MIA PaCa2 or H358 cells, compound incubated 1.5 hours, read-out: IC50 (p-ERK)

| Compound | IC50 (SHP2 (full length)) [nM] | IC50 [1, 2] [nM] | also measured |
| --- | --- | --- | --- |
| C[C@@H]1OCC2(CCN(c3cnc(Sc4ccc5ncn(Cc6ccoc6)c(=O)c5c4Cl)cn3)CC2)[C@@H]1N [Example 119] | < 3 | < 45 | – |
| Cc1nc2ccc(Sc3cnc(N4CCC(C)(CN)CC4)cn3)c(Cl)c2c(=O)n1Cc1ccccc1 [Example 23, 6-((5-(4-(aminomethyl)-4-methylpiperidin-1-yl)pyrazin-2-yl)thio)-3-benzyl-5-chloro-2-methylquinazolin-4(3H)-one] | 3 to 100 | 45 to 1500 | – |
| COCCn1cnc2ccc(Sc3cnc(N4CCC5(CC4)Cc4scnc4[C@H]5N)c(CO)n3)c(Cl)c2c1=O [Example 170, (S)-6-((5-(4-amino-4,6-dihydrospiro[yclopenta[d]thiazole-5,4′-piperidin]-1′-yl)-6-(hydroxymethyl)pyrazin-2-yl)thio)-5-chloro-3-(2-methoxyethyl)quinazolin-4(3H)-one] | < 3 | < 45 | – |
| Cc1ccc(Cn2cnc3ccc(Sc4cnc(N5CCC6(CC5)CO[C@@H](C)[C@H]6N)cn4)c(Cl)c3c2=O)c(F)c1 [Example 69, 6-((5-((3S,4S)-4-amino-3-methyl-2-oxa-8-azaspiro[4.5]decan-8-yl)pyrazin-2-yl)thio)-5-chloro-3-(2-fluoro-4-methylbenzyl)quinazolin-4(3H)-one] | < 3 | < 45 | – |
| C[C@@H]1OCC2(CCN(c3cnc(Sc4ccc5ncn(Cc6ccc(F)cc6)c(=O)c5c4Cl)cn3)CC2)[C@@H]1N [Example 40, 6-((5-((3S,4S)-4-amino-3-methyl-2-oxa-8-azaspiro[4.5]decan-8-yl)pyrazin-2-yl)thio)-5-chloro-3-(4-fluorobenzyl)quinazolin-4(3H)-one] | < 3 | 45 to 1500 | – |
| COCCn1cnc2ccc(Sc3cnc(N4CCC5(CC4)Cc4scnc4[C@H]5N)cn3)c(Cl)c2c1=O [Example 151, 6-[5-[(4S)-4-aminospiro[4,6-dihydrocyclopenta[d]thiazole-5,4′-piperidin]-1′-yl]pyrazin-2-yl]sulfanyl-5-chloro-3-(2-methoxyethyl)quinazolin-4-one] | < 3 | < 45 | – |
| COc1ccc(Cn2cnc3ccc(Sc4cnc(N5CCC6(CC5)CO[C@@H](C)[C@H]6N)cn4)c(Cl)c3c2=O)c(F)c1 [Example 72, 6-((5-((3S,4S)-4-amino-3-methyl-2-oxa-8-azaspiro[4.5]decan-8-yl)pyrazin-2-yl)thio)-5-chloro-3-(2-fluoro-4-methoxybenzyl)quinazolin-4(3H)-one] | < 3 | < 45 | – |
| C[C@@H]1OCC2(CCN(c3cnc(Sc4ccc5ncn(Cc6cccc(C(F)(F)F)c6)c(=O)c5c4Cl)cn3)CC2)[C@@H]1N [Example 34] | 3 to 100 | 45 to 1500 | – |
| COC(C)Cn1cnc2ccc(Sc3cnc(N4CCC5(CC4)Cc4ncccc4[C@H]5N)cn3)c(Cl)c2c1=O (stereo partly drawn) [Example 142, 6-((5-((S)-5-amino-5,7-dihydrospiro[yclopenta[b]pyridine-6,4′-piperidin]-1′-yl)pyrazin-2-yl)thio)-5-chloro-3-(2-methoxypropyl)quinazolin-4(3H)-one] | < 3 | < 45 | – |
| COCCCn1cnc2ccc(Sc3cnc(N4CCC5(CC4)CO[C@@H](C)[C@H]5N)cn3)c(Cl)c2c1=O [Example 94, 6-((5-((3S,4S)-4-amino-3-methyl-2-oxa-8-azaspiro[4.5]decan-8-yl)pyrazin-2-yl)thio)-5-chloro-3-(3-methoxypropyl)quinazolin-4(3H)-one] | < 3 | > 1500 | – |
| N[C@H]1c2ccccc2CC12CCN(c1cnc(Sc3ccc4ncn(Cc5ccccc5)c(=O)c4c3Cl)cn1)CC2 [Example 100] | 3 to 100 | – | – |
| C[C@@H]1OCC2(CCN(c3cnc(Sc4ccc5ncn(Cc6ccno6)c(=O)c5c4Cl)cn3)CC2)[C@@H]1N [Example 57, 6-((5-((3S,4S)-4-amino-3-methyl-2-oxa-8-azaspiro[4.5]decan-8-yl)pyrazin-2-yl)thio)-5-chloro-3-(isoxazol-5-ylmethyl)quinazolin-4(3H)-one] | < 3 | – | – |
| COCCn1cnc2ccc(Sc3ncc(N4CCC5(CC4)Cc4ncsc4[C@H]5N)nc3N)c(Cl)c2c1=O [Example 164, (S)-6-((3-amino-5-(6-amino-4,6-dihydrospiro[cyclopenta[d]thiazole-5,4′-piperidin]-1′-yl)pyrazin-2-yl)thio)-5-chloro-3-(2-methoxyethyl)quinazolin-4(31-1)-one] | < 3 | – | – |
| Cn1c(N2CCN(C[C@@H](N)Cc3ccncc3)CC2)nc(N)c(Sc2cccc(Cl)c2Cl)c1=O [Example 187, (S)-6-amino-2-(4-(2-amino-3-(pyridin-4-yl)propyl)piperazin-1-yl)-5-((2,3-dichlorophenyl)thio)-3-methylpyrimidin-4(3H)-one] | > 100 | – | – |
| COCCn1cnc2ccc(Sc3cnc(N4CCC5(CC4)CO[C@@H](C)[C@H]5N)nn3)c(Cl)c2c1=O [Example 183, 6-((3-((3S,4S)-4-amino-3-methyl-2-oxa-8-azaspiro[4.5]decan-8-yl)-1,2,4-triazin-6-yl)thio)-5-chloro-3-(2-methoxyethyl)quinazolin-4(3H)-one] | – | – | IC50 [1, 3]: > 1500 nM |
| N[C@H]1c2cccnc2CC12CCN(c1cnc(Sc3ccc4ncn(Cc5ccccc5)c(=O)c4c3Cl)cn1)CC2 [Example 101, (R)-6-((5-(5-amino-5,7-dihydrospiro[cyclopenta[b]pyridine-6,4′-piperidin]-1′-yl)pyrazin-2-yl)thio)-3-benzyl-5-chloroquinazolin-4(3H)-one] | 3 to 100 | – | – |
| COc1ccc2c(c1)[C@@H](N)C1(CCN(c3cnc(Sc4ccc5ncn(CC(C)(C)O)c(=O)c5c4Cl)cn3)CC1)C2 [Example 162, (S)-6-((5-(1-amino-6-methoxy-1,3-dihydrospiro[indene-2,4′-piperidin]-1′-yl)pyrazin-2-yl)thio)-5-chloro-3-(2-hydroxy-2-methylpropyl)quinazolin-4(3H)-one] | < 3 | – | – |
| Cn1c(N2CCN(CCN)CC2)nc(N)c(Sc2ccnc(N)c2Cl)c1=O [Example 192] | > 100 | – | – |
| C[C@@H]1OCC2(CCN(c3cnc(Sc4ccc5ncn(CC6CCNC6)c(=O)c5c4Cl)cn3)CC2)[C@@H]1N (stereo partly drawn) [Example 55, 6-((5-((3S,4S)-4-amino-3-methyl-2-oxa-8-azaspiro[4.5]decan-8-yl)pyrazin-2-yl)thio)-5-chloro-3-(pyrrolidin-3-ylmethyl)quinazolin-4(3H)-one] | 3 to 100 | – | – |
| C[C@@H]1OCC2(CCN(c3cnc(Sc4ccc5ncn(CC6CCCN6)c(=O)c5c4Cl)cn3)CC2)[C@@H]1N (stereo partly drawn) [Example 54, 6-((5-((3S,4S)-4-amino-3-methyl-2-oxa-8-azaspiro[4.5]decan-8-yl)pyrazin-2-yl)thio)-5-chloro-3-(pyrrolidin-2-ylmethyl)quinazolin-4(3H)-one] | 3 to 100 | – | – |
| C[C@@H]1OCC2(CCN(c3cnc(Sc4ccc5ncn(CCO)c(=O)c5c4Cl)cn3)CC2)[C@@H]1N [Example 58, 6-((5-((3S,4S)-4-amino-3-methyl-2-oxa-8-azaspiro[4.5]decan-8-yl)pyrazin-2-yl)thio)-5-chloro-3-(2-hydroxyethyl)quinazolin-4(3H)-one] | 3 to 100 | – | – |
| N[C@@H]1c2ccccc2CC12CCN(c1cnc(Sc3ccc4ncn(Cc5ccccc5)c(=O)c4c3Cl)cn1)CC2 [Example 99, (S)-6-((5-(1-amino-1,3-dihydrospiro(indene-2,4′-piperidin]-1′-yl)pyrazin-2-yl)thio)-3-benzyl-5-chloroquinazolin-4(3H)-one] | < 3 | – | – |
| C[C@@H]1OCC2(CCN(c3cnc(Sc4ccnc(C(=O)NCc5ccccc5)c4Cl)cn3)CC2)[C@@H]1N [Example 86, 4-((5-((3S,4S)-4-amino-3-methyl-2-oxa-8-azaspiro[4.5]decan-8-yl)pyrazin-2-yl)thio)-N-benzyl-3-chloropicolinamide] | 3 to 100 | – | – |
| C[C@@H]1OCC2(CCN(c3cnc(Sc4ccnc(N)c4Cl)c(N)n3)CC2)[C@@H]1N [TNO155, (3S,4S)-8-(6-amino-5-((2-amino-3-chloropyridin-4-yl)thio)pyrazin-2-yl)-3-methyl-2-oxa-8-azaspiro[4.5]decan-4-amine, reference compound] | – | – | IC50 [1, 3]: < 45 nM |
| C[C@@H]1OCC2(CCN(c3cnc(Sc4ccc5ncn(Cc6ccon6)c(=O)c5c4Cl)cn3)CC2)[C@@H]1N [Example 56, 6-((5-((3S,4S)-4-amino-3-methyl-2-oxa-8-azaspiro[4.5]decan-8-yl)pyrazin-2-yl)thio)-5-chloro-3-(isoxazol-3-ylmethyl)quinazolin-4(3H)-one] | < 3 | – | – |
| CC1(N)CCN(c2cnc(-c3cccc(Cl)c3Cl)c(N)n2)CC1 [SHP099, 6-(4-amino-4-methylpiperidin-1-yl)-3-(2,3-dichlorophenyl)pyrazin-2-amine, reference compound] | – | – | IC50 ([1]; 1.5 h, read-out: IC50 (p-ERK, nM)): 45 to 1500 nM |
| Cc1nc2ccc(Sc3cnc(N4CCC(C)(CN)CC4)cn3)c(Cl)c2c(=O)n1Cc1cccc(S(=O)(=O)F)c1 [Example 21, 3-((6-((5-(4-(aminomethyl)-4-methylpiperidin-1-yl)pyrazin-2-yl)thio)-5-chloro-2methyl-4-oxoquinazolin-3(4H)-yl)methyl)benzenesulfonyl fluoride] | – | – | IC50 [1, 3]: 45 to 1500 nM |
